This note sets out measurements from US20230279025A1, “KRAS G12D INHIBITORS” (Mirati Therapeutics, Inc., priority 2020, published 2023).

In the assay the target is KRas G12D (Homo sapiens (Human), UniProt P01116, G12D). Put plainly: KRas G12D Binding Assay (TR-FRET displacement of Cy5 labelled tracer). The following applies: GDP-loaded KRAS G12D (amino acids 1:169), 60 minute incubation at 22° C. As for the experimental part:
After a 60 minute incubation at 22° C., the reaction was measured using a PerkinElmer EnVision multimode plate reader via TR-FRET dual wavelength detection, and the percent of control (POC) calculated using a ratiometric emission factor. […] The POC values were fit to a 4-parameter logistic curve and the IC50 value was determined as the concentration where the curve crosses 50 POC.
ND stands for “not determined.”

SMILES strings stand for the structures. Where a name gives a salt, the structure may show the parent alone.

KRas G12D, sequence (P01116 other isoform, or with tags, fused parts or gaps G12D): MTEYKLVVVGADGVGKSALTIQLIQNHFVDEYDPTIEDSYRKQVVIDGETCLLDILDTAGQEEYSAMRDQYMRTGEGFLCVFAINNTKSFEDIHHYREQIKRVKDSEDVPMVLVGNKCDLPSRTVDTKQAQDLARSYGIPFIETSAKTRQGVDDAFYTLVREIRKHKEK

Regarding `CN1C[C@H](OC(=O)NCCOCc2ccc(O)cc2)C[C@H]1COc1nc(N2C[C@H]3CC[C@@H](C2)N3)c2cnc(-c3cccc4cccc(Cl)c34)c(F)c2n1` [Example 260, (3R,5S)-5-(((4-((1R,5S)-3,8-diazabicyclo[3.2.1]octan-3-yl)-7-(8-chloronaphthalen-1-yl)-8-fluoropyrido[4,3-d]pyrimidin-2-yl)oxy)methyl)-1-methylpyrrolidin-3-yl (2-((4-hydroxybenzyl)oxy)ethyl)carbamate], the IC50 (usually the midpoint of a concentration-inhibition curve) is 0.107 µM.

The compound `Fc1c(-c2cccc3cccc(Cl)c23)ncc2c(N3CC4CCC(C3)N4)nc(OC[C@@]34CCCN3C[C@@H](C(F)(F)F)C4)nc12` (mixture of isomers) [Example 382] gave an IC50 of 0.0211 µM. Against the preceding compound, the IC50 is about 5.1-fold lower.

For the compound `Cc1nccn1CCOc1nc(N2C[C@H]3C[C@@H](O)[C@@H](C2)N3)c2cnc(-c3cccc4cccc(Cl)c34)c(F)c2n1` [Example 167, (1R,5R,6R)-3-(7-(8-chloronaphthalen-1-yl)-8-fluoro-2-(2-(2-methyl-1H-imidazol-1-yl)ethoxy)pyrido[4,3-d]pyrimidin-4-yl)-3,8-diazabicyclo[3.2.1]octan-6-ol], the IC50 turned out to be 0.226 µM. Regarding `Fc1c(-c2cccc(C(F)(F)F)c2C(F)(F)F)ncc2c(N3C[C@H]4CC[C@@H](C3)N4)nc(OCC34CCCN3CCC4)nc12` [Example 197, 4-((1R,5S)-3,8-diazabicyclo[3.2.1]octan-3-yl)-7-(2,3-bis(trifluoromethyl)phenyl)-8-fluoro-2-((tetrahydro-1H-pyrrolizin-7a(5H)-yl)methoxy)pyrido[4,3-d]pyrimidine], the IC50 was determined as 0.0999 µM. Compared with the last compound, the IC50 is about 2.3-fold lower. Turning to `Oc1ccccc1-c1ncc2c(N3C[C@H]4CC[C@@H](C3)N4)nc(OCC34CCCN3CCC4)nc2c1F` [Example 267, 2-(4-((1R,5S)-3,8-diazabicyclo[3.2.1]octan-3-yl)-8-fluoro-2-((hexahydro-1H-pyrrolizin-7a-yl)methoxy)pyrido[4,3-d]pyrimidin-7-yl)phenol], the IC50 was determined as 3.26 µM.

`OCc1cccc2cccc(-c3ncc4c(N5C[C@H]6CC[C@@H](C5)N6)nc(OCC56CCCN5CCC6)nc4c3F)c12` [Example 238, (8-(4-((1R,5S)-3,8-diazabicyclo[3.2.1]octan-3-yl)-8-fluoro-2-((tetrahydro-1H-pyrrolizin-7a(5H)-yl)methoxy)pyrido[4,3-d]pyrimidin-7-yl)naphthalen-1-yl)methanol] returned an IC50 of 0.0161 µM. In turn, `CC(C)c1ccc(O)cc1-c1ncc2c(N3C[C@H]4CC[C@@H](C3)N4)nc(OCC34CCCN3CCC4)nc2c1F` [Example 403, 3-(4-((1R,5S)-3,8-diazabicyclo[3.2.1]octan-3-yl)-8-fluoro-2-((tetrahydro-1H-pyrrolizin-7a(5H)-yl)methoxy)pyrido[4,3-d]pyrimidin-7-yl)-4-isopropylphenol] yielded an IC50 of 0.0019 µM.

For `Oc1cc(-c2ncc3c(N4C[C@H]5CC[C@@H](C4)N5)nc(OC[C@@]45CCCN4C[C@H](F)C5)nc3c2F)c2c(F)cccc2c1` [Example 282, 4-(4-((1R,5S)-3,8-diazabicyclo[3.2.1]octan-3-yl)-8-fluoro-2-(((2R,7aS)-2-fluorohexahydro-1H-pyrrolizin-7a-yl)methoxy)pyrido[4,3-d]pyrimidin-7-yl)-5-fluoronaphthalen-2-ol], the IC50 is 0.0007 µM. `Fc1cccc(-c2ncc3c(N4C[C@H]5CC[C@@H](C4)N5)nc(OCC45CCCN4CCC5)nc3c2F)c1C(F)(F)F` [Example 292, 4-((1R,5S)-3,8-diazabicyclo[3.2.1]octan-3-yl)-8-fluoro-7-(3-fluoro-2-(trifluoromethyl)phenyl)-2-((tetrahydro-1H-pyrrolizin-7a(5H)-yl)methoxy)pyrido[4,3-d]pyrimidine] had an IC50 of 0.0131 µM. In turn, `Fc1c(-c2cccc3cccc(CC(F)F)c23)ncc2c(N3C[C@H]4CC[C@@H](C3)N4)nc(OCC34CCCN3CCC4)nc12` [Example 247, 4-((1R,5S)-3,8-diazabicyclo[3.2.1]octan-3-yl)-7-(8-(2,2-difluoroethyl)naphthalen-1-yl)-8-fluoro-2-((hexahydro-1H-pyrrolizin-7a-yl)methoxy)pyrido[4,3-d]pyrimidine] returned an IC50 of 0.0126 µM. With `Fc1c(-c2cccc3cccc(Cl)c23)ncc2c(N3C[C@H]4CC[C@@H](C3)N4)nc(OC[C@]34CCCN3[C@@H](Cn3cccn3)CC4)nc12` [Example 418, 2-(((3R,7aR)-3-((1H-pyrazol-1-yl)methyl)hexahydro-1H-pyrrolizin-7a-yl)methoxy)-4-((1R,5S)-3,8-diazabicyclo[3.2.1]octan-3-yl)-7-(8-chloronaphthalen-1-yl)-8-fluoropyrido[4,3-d]pyrimidine] the figure was 0.0075 µM; with `C#Cc1cccc2cc(O)cc(-c3ncc4c(N5C[C@H]6CC[C@@H](C5)N6)nc(OCC56CCCN5CCC6)nc4c3F)c12` [Example 185, 4-(4-((1R,5S)-3,8-diazabicyclo[3.2.1]octan-3-yl)-8-fluoro-2-((hexahydro-1H-pyrrolizin-7a-yl)methoxy)pyrido[4,3-d]pyrimidin-7-yl)-5-ethynylnaphthalen-2-ol], 0.0003 µM; with `Fc1c(-c2cccc(Cl)c2C(F)(F)F)ncc2c(N3C[C@H]4CC[C@@H](C3)N4)nc(OCC34CCCN3CCC4)nc12` [Example 328, 4-((1R,5S)-3,8-diazabicyclo[3.2.1]octan-3-yl)-7-(3-chloro-2-(trifluoromethyl)phenyl)-8-fluoro-2-((tetrahydro-1H-pyrrolizin-7a(5H)-yl)methoxy)pyrido[4,3-d]pyrimidine], 0.0094 µM. With `OCC12CCCN1CC(Oc1nc(N3C[C@H]4CC[C@@H](C3)N4)c3cnc(-c4cccc5cccc(Cl)c45)c(F)c3n1)C2` (stereo partly drawn) [Example 222, (2-((4-((1R,5S)-3,8-diazabicyclo[3.2.1]octan-3-yl)-7-(8-chloronaphthalen-1-yl)-8-fluoropyrido[4,3-d]pyrimidin-2-yl)oxy)tetrahydro-1H-pyrrolizin-7a(5H)-yl)methanol bis-TFA salt] the figure was 1.13 µM; with `Fc1c(-c2cccc3cccc(OC(F)(F)F)c23)ncc2c(N3C[C@H]4CC[C@@H](C3)N4)nc(OCC34CCCN3CCC4)nc12` [Example 345, 4-((1R,5S)-3,8-diazabicyclo[3.2.1]octan-3-yl)-8-fluoro-2-((tetrahydro-1H-pyrrolizin-7a(5H)-yl)methoxy)-7-(8-(trifluoromethoxy)naphthalen-1-yl)pyrido[4,3-d]pyrimidine], 0.0106 µM. Consider `Cc1ccc2[nH]ncc2c1-c1ncc2c(N3C[C@H]4CC[C@@H](C3)N4)nc(OCC34CCCN3CCC4)nc2c1F` [Example 332, 4-((1R,5S)-3,8-diazabicyclo[3.2.1]octan-3-yl)-8-fluoro-7-(5-methyl-1H-indazol-4-yl)-2-((tetrahydro-1H-pyrrolizin-7a(5H)-yl)methoxy)pyrido[4,3-d]pyrimidine], for which the IC50 came to 0.164 µM. With `CNC(C)COc1nc(N2CC3CCC(C2)N3)c2cnc(-c3cccc4cccc(Cl)c34)c(F)c2n1` (stereo not drawn) [Example 363, bis(2,2,2-trifluoroacetate)] the figure was 3.93 µM; with `CCc1c(Cl)cccc1-c1ncc2c(N3C[C@H]4CC[C@@H](C3)N4)nc(OCC34CCCN3CCC4)nc2c1F` [Example 312, 4-((1R,5S)-3,8-diazabicyclo[3.2.1]octan-3-yl)-7-(3-chloro-2-ethylphenyl)-8-fluoro-2-((hexahydro-1H-pyrrolizin-7a-yl)methoxy)pyrido[4,3-d]pyrimidine], 0.009 µM. Compound `Fc1c(-c2cccc3cccc(Cl)c23)ncc2c(N3C[C@H]4CC[C@@H](C3)N4)nc(N3CC4(CCN4)C3)nc12` [Example 130, 4-((1R,5S)-3,8-diazabicyclo[3.2.1]octan-3-yl)-7-(8-chloronaphthalen-1-yl)-8-fluoro-2-(1,6-diazaspiro[3.3]heptan-6-yl)pyrido[4,3-d]pyrimidine] returned an IC50 of 1.65 µM.

Compound `O=C(OC[C@H]1CC[C@@]2(COc3nc(N4CC5CCC(C4)N5)c4cnc(-c5cccc6cccc(Cl)c56)c(F)c4n3)CCCN12)N1CCOCC1` [Example 445, ((3R,7aR)-7a-(((4-(3,8-diazabicyclo[3.2.1]octan-3-yl)-7-(8-chloronaphthalen-1-yl)-8-fluoropyrido[4,3-d]pyrimidin-2-yl)oxy)methyl)hexahydro-1H-pyrrolizin-3-yl)methyl morpholine-4-carboxylate] came in with an IC50 of 0.0027 µM. The figure for `Fc1c(-c2ccccc2C(F)(F)F)ncc2c(N3C[C@H]4CC[C@@H](C3)N4)nc(OCC34CCCN3CCC4)nc12` [Example 370, 4-((1R,5S)-3,8-diazabicyclo[3.2.1]octan-3-yl)-8-fluoro-2-((tetrahydro-1H-pyrrolizin-7a(5H)-yl)methoxy)-7-(2-(trifluoromethyl)phenyl)pyrido[4,3-d]pyrimidine] is 0.0861 µM; for `Cc1cc2sc(N)nc2c(-c2ncc3c(N4C[C@H]5CC[C@@H](C4)N5)nc(OCC45CCCN4CCC5)nc3c2F)c1C` [Example 456, 4-(4-((1R,5S)-3,8-diazabicyclo[3.2.1]octan-3-yl)-8-fluoro-2-((hexahydro-1H-pyrrolizin-7a-yl)methoxy)pyrido[4,3-d]pyrimidin-7-yl)-5,6-dimethylbenzo[d]thiazol-2-amine] it is 0.966 µM; for `Fc1c(-c2cccc3cccc(Br)c23)ncc2c(N3C[C@H]4CC[C@@H](C3)N4)nc(OCC34CCCN3CCC4)nc12` [Example 235, 4-((1R,5S)-3,8-diazabicyclo[3.2.1]octan-3-yl)-7-(8-bromonaphthalen-1-yl)-8-fluoro-2-((tetrahydro-1H-pyrrolizin-7a(5H)-yl)methoxy)pyrido[4,3-d]pyrimidine] it is 0.0012 µM. Compound `CCc1c(F)ccc2cc(O)cc(-c3ncc4c(N5C[C@H]6CC[C@@H](C5)N6)nc(OC[C@]56CCCN5[C@@H](COC(=O)N(C)C)CC6)nc4c3F)c12` [Example 441, ((3R,7aR)-7a-(((4-((1R,5S)-3,8-diazabicyclo[3.2.1]octan-3-yl)-7-(8-ethyl-7-fluoro-3-hydroxynaphthalen-1-yl)-8-fluoropyrido[4,3-d]pyrimidin-2-yl)oxy)methyl)hexahydro-1H-pyrrolizin-3-yl)methyl dimethylcarbamate] yielded an IC50 of 0.0005 µM.
